Results as given in patent publication US20110173718A1, “HERBICIDE TOLERANT PLANTS” (SYNGENTA CROP PROTECTION, INC., priority 2008, published 2011).

System: weeds
Experiment: Glasshouse weed control by HST/HPPD (mesotrione) mixtures, pre-emergence
Assay type: in vivo
Settings: for % Damage at 14 DAA, no-mesotrione / % Damage at 14 DAA, 1 g ai ha^−1 mesotrione: N = 3; for colby: Colby synergy score
Protocol: Weed seeds are planted out in trays containing suitable soil (for example 50% peat, 50% John Innes soil no 3) and grown in the glass house conditions under 24-27° C. day; 18-21° C. night and approximately a 14 h (or longer in UK summer) photoperiod. Humidity is ˜65% and light levels up to 2000 μmol/m^2 at bench level. Trays are sprayed with test chemicals dissolved in water with 0.2-0.25% X-77 surfactant and sprayed from a boom on a suitable track sprayer moving at about 2 mph in a suitable track sprayer (for example a DeVries spray chamber with the nozzle about 2 inches from the plant tops). Spray volume is suitably 500-1000 l/ha. Sprays are carried out both pre-emergence and over small plants at about 7-12 d post-emergence
Plants are assessed 14 DAT and herbicidal damage is scored on a scale from 0 to 100%. The HST inhibitor compound 2.30 (designated compound A in table 16 and 17), haloxydine (compound 1.1) and compound 2.13 (designated compound AE in tables 16 and 17) are sprayed at rates between 0 and 500 g/ha.

[1] = ECHCG, 63 g/ha + mesotrione 1 g ai/ha
[2] = ECHCG, 125 g/ha + mesotrione 1 g ai/ha
[3] = ECHCG, 250 g/ha + mesotrione 1 g ai/ha
[4] = ECHCG, 500 g/ha + mesotrione 1 g ai/ha
[5] = IPOHE, 16 g/ha + mesotrione 1 g ai/ha
[6] = IPOHE, 31 g/ha + mesotrione 1 g ai/ha
[7] = IPOHE, 63 g/ha + mesotrione 1 g ai/ha
[8] = IPOHE, 125 g/ha + mesotrione 1 g ai/ha
[9] = IPOHE, 250 g/ha + mesotrione 1 g ai/ha
[10] = IPOHE, 500 g/ha + mesotrione 1 g ai/ha
[11] = SETFA, 16 g/ha + mesotrione 1 g ai/ha
[12] = SETFA, 31 g/ha + mesotrione 1 g ai/ha
[13] = SETFA, 63 g/ha + mesotrione 1 g ai/ha
[14] = SETFA, 125 g/ha + mesotrione 1 g ai/ha
[15] = SETFA, 250 g/ha + mesotrione 1 g ai/ha
[16] = SETFA, 500 g/ha + mesotrione 1 g ai/ha
[17] = SOLNI, 16 g/ha + mesotrione 1 g ai/ha
[18] = SOLNI, 31 g/ha + mesotrione 1 g ai/ha
[19] = SOLNI, 63 g/ha + mesotrione 1 g ai/ha
[20] = SOLNI, 125 g/ha + mesotrione 1 g ai/ha
[21] = SOLNI, 250 g/ha + mesotrione 1 g ai/ha
[22] = SOLNI, 500 g/ha + mesotrione 1 g ai/ha

Structure (SMILES): O=c1c(-c2c(F)ccc(F)c2Cl)c(O)c2cccnc2n1CC(F)F [Compound 2.13]
- % Damage at 14 DAA, no-mesotrione (ECHCG, 31 g/ha): 0%
- colby [1]: 3%
- % Damage at 14 DAA, 1 g ai ha^−1 mesotrione [1]: 3%
- % Damage at 14 DAA, no-mesotrione (ECHCG, 63 g/ha): 0%
- colby [2]: 3%
- % Damage at 14 DAA, 1 g ai ha^−1 mesotrione [2]: 3%
- % Damage at 14 DAA, no-mesotrione (ECHCG, 125 g/ha): 0%
- colby [3]: 2%
- % Damage at 14 DAA, 1 g ai ha^−1 mesotrione [3]: 2%
- % Damage at 14 DAA, no-mesotrione (ECHCG, 250 g/ha): 0%
- colby [4]: −2%
- % Damage at 14 DAA, 1 g ai ha^−1 mesotrione [4]: 2%
- % Damage at 14 DAA, no-mesotrione (ECHCG, 500 g/ha): 3%
- colby [5]: 0%
- % Damage at 14 DAA, 1 g ai ha^−1 mesotrione [5]: 0%
- % Damage at 14 DAA, no-mesotrione (IPOHE, 16 g/ha): 0%
- colby [6]: 0%
- % Damage at 14 DAA, 1 g ai ha^−1 mesotrione [6]: 0%
- % Damage at 14 DAA, no-mesotrione (IPOHE, 31 g/ha): 0%
- colby [7]: 7%
- % Damage at 14 DAA, 1 g ai ha^−1 mesotrione [7]: 7%
- % Damage at 14 DAA, no-mesotrione (IPOHE, 63 g/ha): 0%
- colby [8]: 0%
- % Damage at 14 DAA, 1 g ai ha^−1 mesotrione [8]: 0%
- % Damage at 14 DAA, no-mesotrione (IPOHE, 125 g/ha): 0%
- colby [9]: 5%
- % Damage at 14 DAA, 1 g ai ha^−1 mesotrione [9]: 5%
- % Damage at 14 DAA, no-mesotrione (IPOHE, 250 g/ha): 0%
- colby [10]: 0%
- % Damage at 14 DAA, 1 g ai ha^−1 mesotrione [10]: 17%
- % Damage at 14 DAA, no-mesotrione (IPOHE, 500 g/ha): 17%
- colby [11]: 0%
- % Damage at 14 DAA, 1 g ai ha^−1 mesotrione [11]: 0%
- % Damage at 14 DAA, no-mesotrione (SETFA, 16 g/ha): 0%
- colby [12]: 0%
- % Damage at 14 DAA, 1 g ai ha^−1 mesotrione [12]: 0%
- % Damage at 14 DAA, no-mesotrione (SETFA, 31 g/ha): 0%
- colby [13]: 0%
- % Damage at 14 DAA, 1 g ai ha^−1 mesotrione [13]: 0%
- % Damage at 14 DAA, no-mesotrione (SETFA, 63 g/ha): 0%
- colby [14]: 0%
- % Damage at 14 DAA, 1 g ai ha^−1 mesotrione [14]: 0%
- % Damage at 14 DAA, no-mesotrione (SETFA, 125 g/ha): 0%
- colby [15]: 0%
- % Damage at 14 DAA, 1 g ai ha^−1 mesotrione [15]: 0%
- % Damage at 14 DAA, no-mesotrione (SETFA, 250 g/ha): 0%
- colby [16]: 0%
- % Damage at 14 DAA, 1 g ai ha^−1 mesotrione [16]: 0%
- % Damage at 14 DAA, no-mesotrione (SETFA, 500 g/ha): 0%
- colby [17]: −12%
- % Damage at 14 DAA, 1 g ai ha^−1 mesotrione [17]: 5%
- % Damage at 14 DAA, no-mesotrione (SOLNI, 16 g/ha): 0%
- colby [18]: −3%
- % Damage at 14 DAA, 1 g ai ha^−1 mesotrione [18]: 23%
- % Damage at 14 DAA, no-mesotrione (SOLNI, 31 g/ha): 12%
- colby [19]: 4%
- % Damage at 14 DAA, 1 g ai ha^−1 mesotrione [19]: 38%
- % Damage at 14 DAA, no-mesotrione (SOLNI, 63 g/ha): 22%
- colby [20]: 9%
- % Damage at 14 DAA, 1 g ai ha^−1 mesotrione [20]: 53%
- % Damage at 14 DAA, no-mesotrione (SOLNI, 125 g/ha): 33%
- colby [21]: 5%
- % Damage at 14 DAA, 1 g ai ha^−1 mesotrione [21]: 78%
- % Damage at 14 DAA, no-mesotrione (SOLNI, 250 g/ha): 68%
- colby [22]: −1%
- % Damage at 14 DAA, 1 g ai ha^−1 mesotrione [22]: 87%
- % Damage at 14 DAA, no-mesotrione (SOLNI, 500 g/ha): 85%
